Entries after “also recorded” stand apart in the source; their conditions may differ.
Assays:
[1] = Polymorph analysis by X-ray powder diffraction (XRPD) after wet granulation / mixing of pravastatin sodium form LEK; assay type: physicochemical
Method: References to 2Θ values are to those measured using CuKα radiation. Samples are measured on apparatus Siemens D-5000 by reflex technique at two conditions: • a. Samples with high amount of pravastatin sodium (more than 30%): CuKα radiation, range from 2° to 37° 2Θ, step 0.04° 2Θ, integration time 1 second, slots V20 and 0.6 mm. • b. Samples with low amount of pravastatin sodium (less than 30%): CuKα radiation, range from 3° to 12° 2Θ, step 0.04° 2Θ, integration time 15 second, slots V20 and 0.6 mm.

[2] = forms as named in WO 01/43723; cited from earlier work

Row | conversion on granulation with granulating liquid comprising a binder (PVP) ([1]; PVP in ethanol, in some experiments) | precrystallization of dry mixture ([1]; dry mixture of pravastatin sodium and microcrystalline cellulose, 2 hours at 60° C.) | stability of Lek form in wet granulation ([1]; mass ratio pravastatin sodium to microcrystalline cellulose higher or equal to 1:1 and pravastatin sodium to ethanol higher or equal to 1:1, preferably 1:0.5) | precrystallization in wet granulation ([1]; pravastatin sodium:microcrystalline cellulose = 1:0.5, pravastatin sodium and ethanol 1:0.4) | polymorph form in the presence of a high amount of microcrystalline cellulose and granulating liquid ([1]; wet granulation with ethanol) | Structure (SMILES) | conversion to another polymorph form on granulation with alcohol alone ([1]; alcohol (absolute ethanol or aqueous ethanol) as granulating liquid, absence of other ingredients) | polymorph conversion by treating with alcohol [2]
1 | partial conversion | does not cause any precrystallization | stable | no precrystallization occurs | precrystallizes to form D | CC[C@H](C)C(=O)O[C@H]1C[C@H](O)C=C2C=C[C@H](C)[C@H](CC[C@@H](O)C[C@@H](O)CC(=O)O)[C@H]21 [pravastatin sodium] | does not convert to any other polymorph form; also recorded: does not cause the precrystallization | –
2 | – | – | – | – | – | CC[C@H](C)C(=O)O[C@H]1C[C@H](O)C=C2C=C[C@H](C)[C@H](CC[C@@H](O)C[C@@H](O)CC(=O)O)[C@H]21 [pravastatin sodium form D, pravastatin sodium] | – | convert to forms A, H, H1, I, J, K

Source: US20110021631A1, “Method of preparing stabilized pharmaceutical compositions comprising active ingredients susceptible to conversion to alternate polymorph forms” (LEK PHARMACEUTICALS D.D., priority 2004, published 2011)
